{"source": "patent US9546156B2", "about": "“N-bicyclic aryl,N'-pyrazolyl urea, thiourea, guanidine cyanoguanidine compounds as TrkA kinase inhibitors” (Array BioPharma Inc., priority 2012, dated 2017)", "assay_in_all_cases": "Off-target kinase profiling (KinaseProfiler)", "assay_type_in_all_cases": "biochemical", "conditions_in_all_cases": "10 μM, ATP near Km", "key": {"Axl": {"molecular_target": "T1, Axl (Homo sapiens, UniProt P30530)", "T1 construct": "purchased Millipore, Inc. (KinaseProfiler service)", "T1 sequence (P30530 26-894)": "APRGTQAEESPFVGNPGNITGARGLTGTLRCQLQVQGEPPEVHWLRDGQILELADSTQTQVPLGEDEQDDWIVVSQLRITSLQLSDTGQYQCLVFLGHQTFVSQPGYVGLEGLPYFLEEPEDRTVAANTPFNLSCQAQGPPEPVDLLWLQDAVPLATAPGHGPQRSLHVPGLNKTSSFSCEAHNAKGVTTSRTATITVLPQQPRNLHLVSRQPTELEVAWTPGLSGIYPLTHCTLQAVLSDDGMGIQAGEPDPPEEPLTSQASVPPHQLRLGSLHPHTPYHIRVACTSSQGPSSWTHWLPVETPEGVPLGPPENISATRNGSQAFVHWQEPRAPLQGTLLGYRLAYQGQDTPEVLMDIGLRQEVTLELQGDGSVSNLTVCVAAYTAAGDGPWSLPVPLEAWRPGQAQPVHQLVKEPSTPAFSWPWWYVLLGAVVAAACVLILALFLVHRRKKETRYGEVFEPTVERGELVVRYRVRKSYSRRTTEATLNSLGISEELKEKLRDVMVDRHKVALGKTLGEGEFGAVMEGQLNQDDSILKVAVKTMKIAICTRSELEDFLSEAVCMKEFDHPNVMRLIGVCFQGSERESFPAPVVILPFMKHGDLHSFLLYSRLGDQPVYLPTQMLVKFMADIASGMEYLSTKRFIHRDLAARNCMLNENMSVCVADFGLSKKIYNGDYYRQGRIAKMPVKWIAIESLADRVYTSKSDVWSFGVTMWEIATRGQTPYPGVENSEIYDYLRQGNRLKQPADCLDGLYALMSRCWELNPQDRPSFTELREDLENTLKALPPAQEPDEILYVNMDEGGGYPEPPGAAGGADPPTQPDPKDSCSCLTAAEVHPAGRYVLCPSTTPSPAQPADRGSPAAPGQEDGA", "experimental": "(§1) A representative compound (Example 16) of the invention was tested for off-target kinase activity at a concentration of 10 μM by Millipore, Inc. in their KinaseProfiler™ service against all the kinases available in their full kinase panel. The compound was run in duplicate at a concentration of ATP near the Km for each individual kinase according to Millipore's specifications. The results are shown in Table B. Data are reported as percent of control (POC) and are the average of the two replicates."}, "CAMK1d": {"molecular_target": "T2, CAMK1d (Homo sapiens, UniProt Q8IU85)", "T2 construct": "purchased Millipore, Inc. (KinaseProfiler service)", "experimental": "as §1"}, "CDK2/cyclinE": {"molecular_target": "T3, CDK2/cyclinE (Homo sapiens, UniProt P24941)", "T3 construct": "purchased Millipore, Inc. (KinaseProfiler service)", "experimental": "as §1"}, "CK2alpha2": {"molecular_target": "T4, CK2alpha2 (Homo sapiens, UniProt P19784)", "T4 construct": "purchased Millipore, Inc. (KinaseProfiler service)", "experimental": "as §1"}, "CLK2": {"molecular_target": "T5, CLK2 (Homo sapiens, UniProt P49760)", "T5 construct": "purchased Millipore, Inc. (KinaseProfiler service)", "experimental": "as §1"}, "DAPK3": {"molecular_target": "T6, DAPK3 (Homo sapiens, UniProt O43293)", "T6 construct": "purchased Millipore, Inc. (KinaseProfiler service)", "experimental": "as §1"}, "DDR2": {"molecular_target": "T7, DDR2 (Homo sapiens, UniProt Q16832)", "T7 construct": "purchased Millipore, Inc. (KinaseProfiler service)", "T7 sequence (Q16832 22-855)": "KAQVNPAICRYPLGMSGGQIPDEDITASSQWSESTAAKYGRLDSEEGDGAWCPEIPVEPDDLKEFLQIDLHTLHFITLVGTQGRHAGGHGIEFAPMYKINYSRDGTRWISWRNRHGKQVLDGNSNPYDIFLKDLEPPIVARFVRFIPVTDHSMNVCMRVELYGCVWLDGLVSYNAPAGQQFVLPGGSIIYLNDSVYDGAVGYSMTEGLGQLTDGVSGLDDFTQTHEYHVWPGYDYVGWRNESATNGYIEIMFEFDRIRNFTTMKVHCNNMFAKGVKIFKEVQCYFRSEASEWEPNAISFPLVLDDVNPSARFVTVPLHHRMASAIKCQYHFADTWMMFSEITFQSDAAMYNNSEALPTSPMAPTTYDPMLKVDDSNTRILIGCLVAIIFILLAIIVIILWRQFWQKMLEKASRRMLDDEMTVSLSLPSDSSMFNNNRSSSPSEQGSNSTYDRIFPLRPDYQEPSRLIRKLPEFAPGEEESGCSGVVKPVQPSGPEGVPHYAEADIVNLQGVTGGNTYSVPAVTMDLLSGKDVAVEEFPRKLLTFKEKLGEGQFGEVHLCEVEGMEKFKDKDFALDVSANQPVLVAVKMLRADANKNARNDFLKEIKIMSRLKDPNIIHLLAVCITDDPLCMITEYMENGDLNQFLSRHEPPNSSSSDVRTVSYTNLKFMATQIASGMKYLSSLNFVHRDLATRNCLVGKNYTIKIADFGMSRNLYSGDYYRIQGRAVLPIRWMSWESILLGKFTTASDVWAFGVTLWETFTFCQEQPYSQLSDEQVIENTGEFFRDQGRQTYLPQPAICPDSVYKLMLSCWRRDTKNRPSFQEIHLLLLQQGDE", "experimental": "as §1"}, "ERK1": {"molecular_target": "T8, ERK1 (Homo sapiens, UniProt P27361)", "T8 construct": "purchased Millipore, Inc. (KinaseProfiler service)", "experimental": "as §1"}, "ERK2": {"molecular_target": "T9, ERK2 (Homo sapiens, UniProt P28482)", "T9 construct": "purchased Millipore, Inc. (KinaseProfiler service)", "experimental": "as §1"}, "EphA3": {"molecular_target": "T10, EphA3 (Homo sapiens, UniProt P29320)", "T10 construct": "purchased Millipore, Inc. (KinaseProfiler service)", "T10 sequence (P29320 21-983)": "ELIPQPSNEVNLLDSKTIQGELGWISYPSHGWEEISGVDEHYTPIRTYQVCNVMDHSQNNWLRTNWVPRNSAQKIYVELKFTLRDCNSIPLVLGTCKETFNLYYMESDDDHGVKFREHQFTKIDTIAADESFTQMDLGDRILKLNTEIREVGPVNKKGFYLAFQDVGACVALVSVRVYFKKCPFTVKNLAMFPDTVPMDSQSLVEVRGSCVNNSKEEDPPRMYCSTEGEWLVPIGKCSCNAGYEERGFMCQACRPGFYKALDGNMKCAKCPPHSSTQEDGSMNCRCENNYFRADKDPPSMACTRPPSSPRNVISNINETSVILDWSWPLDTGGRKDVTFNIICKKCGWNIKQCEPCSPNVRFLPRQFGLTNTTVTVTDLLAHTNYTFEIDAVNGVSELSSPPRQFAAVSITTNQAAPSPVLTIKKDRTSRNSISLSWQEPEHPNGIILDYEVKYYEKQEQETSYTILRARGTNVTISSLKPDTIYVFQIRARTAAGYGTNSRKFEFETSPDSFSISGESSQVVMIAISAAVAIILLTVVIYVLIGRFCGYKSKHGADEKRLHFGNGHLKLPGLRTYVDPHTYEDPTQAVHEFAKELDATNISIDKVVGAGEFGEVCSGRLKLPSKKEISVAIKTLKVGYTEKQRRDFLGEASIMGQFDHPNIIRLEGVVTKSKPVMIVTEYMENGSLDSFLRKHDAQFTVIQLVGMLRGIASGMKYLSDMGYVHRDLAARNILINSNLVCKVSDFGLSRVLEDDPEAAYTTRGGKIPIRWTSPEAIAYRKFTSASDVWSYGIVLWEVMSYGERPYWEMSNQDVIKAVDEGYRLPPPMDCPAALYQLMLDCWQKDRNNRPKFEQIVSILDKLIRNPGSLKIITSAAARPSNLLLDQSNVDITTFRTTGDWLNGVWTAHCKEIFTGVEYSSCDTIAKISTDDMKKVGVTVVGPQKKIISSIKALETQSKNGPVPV", "experimental": "as §1"}, "EphB2": {"molecular_target": "T11, EphB2 (Homo sapiens, UniProt P29323)", "T11 construct": "purchased Millipore, Inc. (KinaseProfiler service)", "experimental": "as §1"}, "FGFR2": {"molecular_target": "T12, FGFR2 (Homo sapiens, UniProt P21802)", "T12 construct": "purchased Millipore, Inc. (KinaseProfiler service)", "experimental": "as §1"}, "Fgr": {"molecular_target": "T13, Fgr (Homo sapiens, UniProt P09769)", "T13 construct": "purchased Millipore, Inc. (KinaseProfiler service)", "experimental": "as §1"}, "KIT": {"molecular_target": "T14, KIT (Homo sapiens, UniProt P10721)", "T14 construct": "purchased Millipore, Inc. (KinaseProfiler service)", "experimental": "as §1"}, "LOK": {"molecular_target": "T15, LOK (Homo sapiens, UniProt O94804)", "T15 construct": "purchased Millipore, Inc. (KinaseProfiler service)", "experimental": "as §1"}, "MRCKbeta": {"molecular_target": "T16, MRCKbeta (Homo sapiens, UniProt Q9Y5S2)", "T16 construct": "purchased Millipore, Inc. (KinaseProfiler service)", "experimental": "as §1"}, "MSK1": {"molecular_target": "T17, MSK1 (Homo sapiens, UniProt O75582)", "T17 construct": "purchased Millipore, Inc. (KinaseProfiler service)", "experimental": "as §1"}, "MST1": {"molecular_target": "T18, MST1 (Homo sapiens, UniProt Q13043)", "T18 construct": "purchased Millipore, Inc. (KinaseProfiler service)", "experimental": "as §1"}, "MST2": {"molecular_target": "T19, MST2 (Homo sapiens, UniProt Q13188)", "T19 construct": "purchased Millipore, Inc. (KinaseProfiler service)", "experimental": "as §1"}, "MYLK": {"molecular_target": "T20, MYLK (Homo sapiens, UniProt Q15746)", "T20 construct": "purchased Millipore, Inc. (KinaseProfiler service)", "experimental": "as §1"}, "Met": {"molecular_target": "T21, Met (Homo sapiens, UniProt P08581)", "T21 construct": "purchased Millipore, Inc. (KinaseProfiler service)", "experimental": "as §1"}, "PAK4": {"molecular_target": "T22, PAK4 (Homo sapiens, UniProt O96013)", "T22 construct": "purchased Millipore, Inc. (KinaseProfiler service)", "experimental": "as §1"}, "PASK": {"molecular_target": "T23, PASK (Homo sapiens, UniProt Q96RG2)", "T23 construct": "purchased Millipore, Inc. (KinaseProfiler service)", "experimental": "as §1"}, "PKCgamma": {"molecular_target": "T24, PKCgamma (Homo sapiens, UniProt P05129)", "T24 construct": "purchased Millipore, Inc. (KinaseProfiler service)", "experimental": "as §1"}, "PKD2": {"molecular_target": "T25, PKD2 (Homo sapiens, UniProt Q9BZL6)", "T25 construct": "purchased Millipore, Inc. (KinaseProfiler service)", "experimental": "as §1"}, "PhKgamma2": {"molecular_target": "T26, PhKgamma2 (Homo sapiens, UniProt P15735)", "T26 construct": "purchased Millipore, Inc. (KinaseProfiler service)", "experimental": "as §1"}, "PrKX": {"molecular_target": "T27, PrKX (Homo sapiens, UniProt P51817)", "T27 construct": "purchased Millipore, Inc. (KinaseProfiler service)", "experimental": "as §1"}, "Rsk2": {"molecular_target": "T28, Rsk2 (Homo sapiens, UniProt P51812)", "T28 construct": "purchased Millipore, Inc. (KinaseProfiler service)", "experimental": "as §1"}, "SGK1": {"molecular_target": "T29, SGK1 (Homo sapiens, UniProt O00141, S422D)", "T29 construct": "purchased Millipore, Inc. (KinaseProfiler service)", "T29 sequence (O00141 60-431 S422D limits assumed)": "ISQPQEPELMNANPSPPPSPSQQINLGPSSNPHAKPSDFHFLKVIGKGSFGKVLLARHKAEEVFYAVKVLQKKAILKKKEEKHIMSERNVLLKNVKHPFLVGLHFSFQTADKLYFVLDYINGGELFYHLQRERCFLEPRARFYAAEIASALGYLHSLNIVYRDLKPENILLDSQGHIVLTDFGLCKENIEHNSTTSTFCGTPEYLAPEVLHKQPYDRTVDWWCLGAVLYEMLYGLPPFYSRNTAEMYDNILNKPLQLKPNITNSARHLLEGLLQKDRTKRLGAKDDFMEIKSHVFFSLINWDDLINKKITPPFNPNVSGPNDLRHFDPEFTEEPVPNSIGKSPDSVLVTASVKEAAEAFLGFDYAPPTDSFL", "experimental": "as §1"}, "SRC": {"molecular_target": "T30, SRC (Homo sapiens, UniProt P12931)", "T30 construct": "purchased Millipore, Inc. (KinaseProfiler service)", "experimental": "as §1"}, "TSSK2": {"molecular_target": "T31, TSSK2 (Homo sapiens, UniProt Q96PF2)", "T31 construct": "purchased Millipore, Inc. (KinaseProfiler service)", "experimental": "as §1"}, "Tie2": {"molecular_target": "T32, Tie2 (Homo sapiens, UniProt Q02763)", "T32 construct": "purchased Millipore, Inc. (KinaseProfiler service)", "T32 sequence (Q02763 23-1124)": "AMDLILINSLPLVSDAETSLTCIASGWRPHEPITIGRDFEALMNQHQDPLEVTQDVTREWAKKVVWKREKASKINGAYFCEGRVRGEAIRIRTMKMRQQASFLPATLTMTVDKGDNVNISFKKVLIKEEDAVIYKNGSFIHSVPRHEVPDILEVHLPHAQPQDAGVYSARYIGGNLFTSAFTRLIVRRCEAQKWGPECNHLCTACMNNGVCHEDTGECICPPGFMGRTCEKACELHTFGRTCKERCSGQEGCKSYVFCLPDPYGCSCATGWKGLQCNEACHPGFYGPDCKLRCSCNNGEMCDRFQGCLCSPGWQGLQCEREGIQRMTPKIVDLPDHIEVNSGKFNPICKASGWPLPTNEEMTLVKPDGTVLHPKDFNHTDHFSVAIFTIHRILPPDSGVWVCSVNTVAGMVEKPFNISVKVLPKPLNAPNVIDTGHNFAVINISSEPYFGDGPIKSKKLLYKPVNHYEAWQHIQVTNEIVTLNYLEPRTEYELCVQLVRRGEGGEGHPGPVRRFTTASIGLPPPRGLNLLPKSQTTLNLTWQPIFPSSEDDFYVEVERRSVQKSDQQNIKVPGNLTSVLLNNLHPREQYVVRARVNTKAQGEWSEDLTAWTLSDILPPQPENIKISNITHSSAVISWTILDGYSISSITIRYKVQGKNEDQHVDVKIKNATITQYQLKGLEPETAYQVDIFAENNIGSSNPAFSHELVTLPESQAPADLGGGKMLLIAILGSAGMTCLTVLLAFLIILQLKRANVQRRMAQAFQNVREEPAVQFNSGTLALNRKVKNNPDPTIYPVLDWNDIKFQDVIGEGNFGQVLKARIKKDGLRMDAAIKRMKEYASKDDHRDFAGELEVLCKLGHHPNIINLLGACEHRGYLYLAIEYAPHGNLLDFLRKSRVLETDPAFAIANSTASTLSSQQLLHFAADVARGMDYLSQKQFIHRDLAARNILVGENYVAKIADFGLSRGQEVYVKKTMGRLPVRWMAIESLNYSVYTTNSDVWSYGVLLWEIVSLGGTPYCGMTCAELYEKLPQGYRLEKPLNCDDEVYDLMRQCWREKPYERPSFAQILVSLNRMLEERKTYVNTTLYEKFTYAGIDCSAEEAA", "experimental": "as §1"}, "TrkA": {"molecular_target": "T33, TrkA (Homo sapiens, UniProt P04629)", "T33 construct": "purchased Millipore, Inc. (KinaseProfiler service)", "experimental": "as §1"}, "TrkB": {"molecular_target": "T34, TrkB (Homo sapiens, UniProt Q16620)", "T34 construct": "purchased Millipore, Inc. (KinaseProfiler service)", "experimental": "as §1"}, "VRK2": {"molecular_target": "T35, VRK2 (Homo sapiens, UniProt Q86Y07)", "T35 construct": "purchased Millipore, Inc. (KinaseProfiler service)", "experimental": "as §1"}, "WNK3": {"molecular_target": "T36, WNK3 (Homo sapiens, UniProt Q9BYP7)", "T36 construct": "purchased Millipore, Inc. (KinaseProfiler service)", "experimental": "as §1"}, "c-RAF": {"molecular_target": "T37, c-RAF (Homo sapiens, UniProt P04049, Y340D/Y341D)", "T37 construct": "purchased Millipore, Inc. (KinaseProfiler service)", "experimental": "as §1"}, "eEF-2K": {"molecular_target": "T38, eEF-2K (Homo sapiens, UniProt O00418)", "T38 construct": "purchased Millipore, Inc. (KinaseProfiler service)", "experimental": "as §1"}, "p38alpha": {"molecular_target": "T39, p38alpha (Homo sapiens, UniProt Q16539)", "T39 construct": "purchased Millipore, Inc. (KinaseProfiler service)", "T39 sequence (Q16539 whole entry)": "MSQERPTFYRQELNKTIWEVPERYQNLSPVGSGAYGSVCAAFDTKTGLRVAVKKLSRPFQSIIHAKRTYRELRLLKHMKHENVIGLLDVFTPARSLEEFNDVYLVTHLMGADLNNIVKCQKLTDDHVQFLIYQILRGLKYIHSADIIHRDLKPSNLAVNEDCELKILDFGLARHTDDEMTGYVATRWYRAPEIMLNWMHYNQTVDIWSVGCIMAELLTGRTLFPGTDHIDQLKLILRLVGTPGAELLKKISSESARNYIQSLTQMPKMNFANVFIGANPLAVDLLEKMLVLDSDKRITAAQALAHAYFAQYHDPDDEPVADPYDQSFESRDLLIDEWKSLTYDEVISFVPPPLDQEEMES", "experimental": "as §1"}, "p38delta": {"molecular_target": "T40, p38delta (Homo sapiens, UniProt O15264)", "T40 construct": "purchased Millipore, Inc. (KinaseProfiler service)", "experimental": "as §1"}, "p70S6K": {"molecular_target": "T41, p70S6K (Homo sapiens, UniProt P23443)", "T41 construct": "purchased Millipore, Inc. (KinaseProfiler service)", "T41 sequence (P23443 whole entry)": "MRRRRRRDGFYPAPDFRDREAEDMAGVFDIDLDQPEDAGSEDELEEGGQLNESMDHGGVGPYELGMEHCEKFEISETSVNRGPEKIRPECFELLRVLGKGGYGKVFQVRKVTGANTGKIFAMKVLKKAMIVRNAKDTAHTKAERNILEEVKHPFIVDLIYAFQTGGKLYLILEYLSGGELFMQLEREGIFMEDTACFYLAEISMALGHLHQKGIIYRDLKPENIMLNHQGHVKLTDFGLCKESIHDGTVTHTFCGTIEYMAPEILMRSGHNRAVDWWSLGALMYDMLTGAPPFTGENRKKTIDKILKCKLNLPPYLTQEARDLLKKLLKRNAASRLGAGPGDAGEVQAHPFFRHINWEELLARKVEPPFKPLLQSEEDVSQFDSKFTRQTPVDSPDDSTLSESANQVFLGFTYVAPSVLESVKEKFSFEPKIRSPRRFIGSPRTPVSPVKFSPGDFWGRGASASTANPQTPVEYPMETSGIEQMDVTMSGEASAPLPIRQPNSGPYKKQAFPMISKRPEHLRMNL", "experimental": "as §1"}}, "data": [{"smiles": "COCc1ccc2cccc(NC(=O)Nc3c(C)c(-c4cnn(C)c4)nn3-c3ccccc3)c2c1", "note": "[Example 16, 1-(1′,4-dimethyl-1-phenyl-1H,1′H-[3,4′-bipyrazol]-5-yl)-3-(7-(methoxymethyl)naphthalen-1-yl)urea]", "values": [{"measurement": "Avg POC", "setting": "Axl", "result": 103.5, "unit": "POC"}, {"measurement": "Avg POC", "setting": "CAMK1d", "result": 134.5, "unit": "POC"}, {"measurement": "Avg POC", "setting": "CDK2/cyclinE", "result": 143, "unit": "POC"}, {"measurement": "Avg POC", "setting": "CK2alpha2", "result": 101, "unit": "POC"}, {"measurement": "Avg POC", "setting": "CLK2", "result": 135, "unit": "POC"}, {"measurement": "Avg POC", "setting": "DAPK3", "result": 120, "unit": "POC"}, {"measurement": "Avg POC", "setting": "DDR2", "result": 117.5, "unit": "POC"}, {"measurement": "Avg POC", "setting": "ERK1", "result": 110, "unit": "POC"}, {"measurement": "Avg POC", "setting": "ERK2", "result": 116.5, "unit": "POC"}, {"measurement": "Avg POC", "setting": "EphA3", "result": 139.5, "unit": "POC"}, {"measurement": "Avg POC", "setting": "EphB2", "result": 109, "unit": "POC"}, {"measurement": "Avg POC", "setting": "FGFR2", "result": 110, "unit": "POC"}, {"measurement": "Avg POC", "setting": "Fgr", "result": 116, "unit": "POC"}, {"measurement": "Avg POC", "setting": "KIT", "result": 93.5, "unit": "POC"}, {"measurement": "Avg POC", "setting": "LOK", "result": 120.5, "unit": "POC"}, {"measurement": "Avg POC", "setting": "MRCKbeta", "result": 119, "unit": "POC"}, {"measurement": "Avg POC", "setting": "MSK1", "result": 132, "unit": "POC"}, {"measurement": "Avg POC", "setting": "MST1", "result": 111.5, "unit": "POC"}, {"measurement": "Avg POC", "setting": "MST2", "result": 115, "unit": "POC"}, {"measurement": "Avg POC", "setting": "MYLK", "result": 109.5, "unit": "POC"}, {"measurement": "Avg POC", "setting": "Met", "result": 130, "unit": "POC"}, {"measurement": "Avg POC", "setting": "PAK4", "result": 112.5, "unit": "POC"}, {"measurement": "Avg POC", "setting": "PASK", "result": 164.5, "unit": "POC"}, {"measurement": "Avg POC", "setting": "PKCgamma", "result": 100.5, "unit": "POC"}, {"measurement": "Avg POC", "setting": "PKD2", "result": 106, "unit": "POC"}, {"measurement": "Avg POC", "setting": "PhKgamma2", "result": 118, "unit": "POC"}, {"measurement": "Avg POC", "setting": "PrKX", "result": 134, "unit": "POC"}, {"measurement": "Avg POC", "setting": "Rsk2", "result": 139.5, "unit": "POC"}, {"measurement": "Avg POC", "setting": "SGK1", "result": 169.5, "unit": "POC"}, {"measurement": "Avg POC", "setting": "SRC", "result": 121.5, "unit": "POC"}, {"measurement": "Avg POC", "setting": "TSSK2", "result": 134, "unit": "POC"}, {"measurement": "Avg POC", "setting": "Tie2", "result": 148.5, "unit": "POC"}, {"measurement": "Avg POC", "setting": "TrkA", "result": 2, "unit": "POC"}, {"measurement": "Avg POC", "setting": "TrkB", "result": 9, "unit": "POC"}, {"measurement": "Avg POC", "setting": "VRK2", "result": 110, "unit": "POC"}, {"measurement": "Avg POC", "setting": "WNK3", "result": 122, "unit": "POC"}, {"measurement": "Avg POC", "setting": "c-RAF", "result": 114, "unit": "POC"}, {"measurement": "Avg POC", "setting": "eEF-2K", "result": 145.5, "unit": "POC"}, {"measurement": "Avg POC", "setting": "p38alpha", "result": 117, "unit": "POC"}, {"measurement": "Avg POC", "setting": "p38delta", "result": 121, "unit": "POC"}, {"measurement": "Avg POC", "setting": "p70S6K", "result": 218, "unit": "POC"}]}]}
